# Reference: patent US20080171070A1, “Polyelectrolyte Multilayer Film, Preparation And Uses Thereof” (priority 2005, published 2008)
# What was measured:
# [1] = system: macrophages; assay: Confocal laser scanning microscopy of films in contact with cells (film degradation, contact with embedded protein A); assay type: cell-based, human; settings: protein A embedded under 20 pairs of (PlGA/PlL) layers
# Procedure: Confocal laser scanning microscopy. For the confocal laser scanning microscopy (CLSM) based investigations, the films were imaged in liquid conditions. CLSM observations were carried out with a Zeiss LSM 510 microscope using a ×40/1.4 oil immersion objective and with 0.4 μm z-section intervals. FITC fluorescence was detected after excitation at 488 nm, cutoff dichroic mirror 488 nm, and emission band pass filter 505-530 nm (green). Virtual vertical sections can be visualized, allowing the thickness of the film to be determined.
# In previous experiments, the inventors could visualize the pseudopods developing through the multilayer down to the protein A layer.^[19] […] The progressive degradation of the (PlGA/PlL)n film as a function of contact time with the cells is visualized in FIGS. 2a-2c.
# The inventors have seen that the film thickness depends upon the d/l ratio of the build-up polyelectrolyte solutions and in particular that it decreases when x increases from 0 up to 50%. On the other hand, for a given number of deposited pairs of layers, the biological activity decreases when x increases. The variations of the biological effects can thus not be attributed to changes of the film thickness with x. The biological effects can rather be explained by a continuous degradation and pseudopod development through the multilayered films^[19] as already found on (PlL/PlGA)n films. […]
# [2] = FTIR spectroscopy in transmission mode, amide-I spectra of protein A with polypeptides; assay type: physicochemical; settings: protein A with PlL and/or PdL, 1 mg mL^−1 each, D2O, 0.15M NaCl
# Procedure: FTIR Spectroscopy in transmission mode. Transmission spectra were measured on an EQUINOX 55 spectrophotometer (Bruker, Wissembourg, France) using a DTGS detector. Solutions were flown into a sample cell holder (SPECAC P/N 20510). Transmission spectra were measured by using CaF2 windows. Single channel spectra from 128 interferograms were calculated between 4000 and 400 cm^−1 with 2 cm^−1 resolution, using Blackman-Harris three-term apodization and Mertz phase correction with the standard Bruker OPUS/IR software (Version 3.0.4). Each sample (aqueous solution of polypeptide or protein A or both) was prepared at a concentration of 1 mg mL^−1 of each component, in a D2O, 0.15M NaCl (purchased from Prolabo) solution.
# [3] = system: human macrophages; assay: Stimulation assay: TNF-α production (ELISA) by macrophages seeded on PA-containing polyelectrolyte multilayers; assay type: cell-based
# Description: Cell Culture. Whole blood samples were purchased at the “Etablissement Français du Sang” (EFS, Strasbourg, France). Peripheral mononuclear blood cells (PBMC) from healthy individuals, seronegative for […] and hepatitis B and C were isolated from buffy coat by Ficoll/Hypaque centrifugation and were washed twice in phosphate-buffered saline without Ca^2+/Mg^2+. Monocytes were isolated from whole-blood and separated by counter-current centrifugal elutriation of the peripheral mononuclear cells.^[40] Purity was measured by flow cytometry staining with fluorochrome antibodies (Becton Dickinson, PharMingen, San Diego, Calif.) to CD3 (T cells), CD19 (B cells), CD14 (monocytes) and CD45 (leukocytes). Monocytes were diluted at 1.5×10^6 cells mL^−1 in AIM lymphocytes SVF free medium with Glutamax, 100 U mL^−1 GM-CSF (PeproTech, Rocky Hill, USA). Culture medium was changed after 3 days of culture, and at day 5 macrophages were washed twice with RPMI at 37° C.
# Polyelectrolyte multilayered film preparation. Polyelectrolyte multilayers were always prepared on glass coverslips (CML, France) pretreated for 15 min at 100° C. with 10^−2 M SDS and 0.12 N HCl, and then extensively rinsed with deionised water. Glass coverslips were deposited in 24-well plates (Nunc, Denmark). All the solutions (polyelectrolyte, PA and rinsing) used for the film constructions contained 0.15 M NaCl with a pH adjusted to 7.4. At this pH both polylysine and polyglutamic acid are almost fully charged, be they l or d enantiomers so that they should not form stereocomplexes in solution. The films were constructed with polyelectrolyte (resp. PA) solutions at 1 mg·mL^−1 (resp. 200 μg·mL^−1) of polyelectrolytes (resp. PA). The film construction was performed as follows: First a precursor film constituted by (PlL/PlGA)5-PlL was built. In each deposition step, the surface is brought in contact with the polyelectrolyte solution for 20 mins followed by another contact with the rinsing solution for 5 mins. This rinsing step is repeated 3 times before adsorption of the polyelectrolyte of opposite charge. After the buildup of the precursor film, PA was adsorbed on the positively charged PlL terminating the precursor film during an overnight contact with PA solution. This film was then rinsed and the additional (PL/PGA)n-PL film was built by using PL and PGA solutions containing (x/100) mg·mL^−1 of PdL (resp. PdGA) and (1-x/100) mg·mL^−1 of PlL (resp. PlGA). All the films were then sterilized for 10 mins by ultraviolet light (254 nm). Before use, the architectures were put in contact with 1 mL of RPMI without serum during 24 h. It is possible that when the films are brought in contact with the culture medium, their structure and thickness change, the structure of the multilayers being dependent on many different physico-chemical parameters.^[41-43] However, such changes cannot explain the different biological effects that are observed in this study. […] One can also notice that the films were built at room temperature whereas the experiments with cells were realized at 37° C.
# Stimulation assays. Stimulation assays involving polyelectrolyte films were conducted by seeding 5×10^5 cells (macrophages) onto the PA-containing polyelectrolyte multilayers prepared on glass coverslips and placed into the wells of 24-well plates. TNF-α production by cells was measured by ELISA. TNF-α levels were detected by an enzyme immunoassay (Endogen Products, Woburn, Mass.). All experiments were repeated twice and were performed at 37° C.
# For multilayer films containing embedded PA, the proteins were always adsorbed on a (PlL/PlGA)5-PlL precursor film in order to keep the adsorption process (in particular the amount of adsorbed proteins) unaffected by the d/l composition of the film. The multilayer with a given d/l composition was then further deposited on top of the (PlL/PlGA)5-PlL-PA architecture and is constituted by n additional pairs of layers. […]
# [4] = system: cells; settings: replacement of PlL by PdL in the film; cited from earlier work
# [5] = system: human macrophages; settings: cited from earlier work
substance,measurement,setting,value
"PA: Staphylococcus aureus protein A, MW=42,000 Da, from Sigma; embedded in the multilayer films as model active ingredient",Contact of macrophages with embedded protein A (CLSM),[1],come into contact with protein A
same,Effect of polypeptide interaction on secondary structure of protein A (amide-I spectra),[2],do not affect the secondary structure of protein A
same,TNF-α production (biological activity),"[3]; d content between 10 and 20%, all embedding depths up to n=20, after 4 hours of contact",full activity
same,TNF-α production (biological activity),"[3]; d content between 10 and 20%, embedding depth exceeds 15 pairs of layers, after 4 hours of contact",reaches its full activity
same,TNF-α production (biological response),"[3]; d content between 10 and 20%, embedding depth exceeds 15 pairs of layers, initial 3 hours of contact",no biological response
same,"TNF-α production (biological activity), time course","[3]; d content between 10 and 20%, embedding depths up to 5 pairs of layers","increases continuously in time, the plateau value being reached after 4 hours of contact"
same,TNF-α production (cellular response),"[3]; n=0: PA adsorbed on top of the film, direct contact with cells, lasts at least up to 6 hours",rapid cellular response is observed already after one hour of contact
same,TNF-α production (biological activity),"[3]; x between 30 and 40%, PA embedded under 1 layer pair",gradually increases after 2 hours of contact
same,TNF-α production (biological activity),"[3]; x between 30 and 40%, embedded under 5 pairs of layers, after 6 hours of contact",fully active
same,TNF-α production (biological activity),"[3]; x between 30 and 40%, embedded under 5 pairs of layers, first 4 hours",totally suppressed
same,TNF-α production (biological activity),"[3]; x between 30 and 40%, embedded under 15 pairs of layers or more, first 6 hours of contact",no longer acts on cells
same,TNF-α production (biological activity),"[3]; x equals 50% or more of d enantiomer, PA embedded under a (PL/PGA/PL) trilayer",totally suppressed
same,Cellular communication with embedded PA,[4],prevents cellular communication with embedded PA
same,Cytokine expression on PA stimulation,[5],rapid expression of both the pro-inflammatory cytokine TNF-α and the anti-inflammatory cytokine IL-10
